For test [1], the system named is Bactrocera tryoni. The experiment in a line: Four-arm olfactometer bioassay. In kind it is in vivo. The conditions noted are these: arm containing C1 vs without. Here is the method:
An acrylic four-arm olfactometer (120 mm dia.) was used to measure behavioural responses of Bactrocera tryoni males/females to food (yeast hydrolysate) with or without 1-octanol (EAG-active compound). Prior to each experiment, acrylic components were washed with a non-ionic detergent solution, rinsed with ethanol solution and distilled water, and left to air dry. Experiments were conducted in a controlled environment room (25±2° C., 60% RH). The central area was fitted with a filter-paper base (Whatmann No. 1, 12 cm dia.) to provide traction for the walking insects. The room was illuminated from above by uniform lighting from white fluorescent light bulbs to negate directional bias. Individual flies (10-15 days old) were introduced through a hole below the olfactometer. Each fly was given 5 min to acclimatize in the olfactometer, after which the experiment was run for 10 min for each replicate. The olfactometer was rotated 90° after each replicate to eliminate any directional bias in the room. Air was drawn through the central hole at 200 ml min-1 and subsequently exhausted from the room. The central arena of the olfactometer was divided into four discrete odour fields corresponding to each of four inlet arms. A choice test was performed that used two different opposite arms. […] Fly activity in each olfactometer was video recorded. The time spent in each arm was recorded using BORIS software. […]

For test [2], the system named is Bactrocera tryoni antenna. As to the kind of experiment: GC-EAD electrophysiology of ant extracts. Particulars: peak in Head and Headspace volatiles. An excerpt: Coupled Gas Chromatography-Electroantennography (GC-EAG) recordings were made with Ag-glass microelectrodes filled with electroconductive gel (Spectra 360, Parker Laboratories Inc., USA). The head of male or female Bactrocera tryoni, anaesthetized by chilling, was separated from the body with a microscalpel and was placed on the tip of the indifferent electrode, making sure the base of the head is affixed to the gel in the electrode. The tip of the insect antenna was made to touch the recording electrode and was slightly inserted into the gel to stabilize the antenna. The signals were passed through a high impedance amplifier (UN-06, Syntech, Hilversum, The Netherlands) and analysed using a software package provided by Syntech. Each extract-cuticular compounds, Dufour's glands, poison glands, trail, headspace, and head extractions were tested individually. After injection of extraction samples, the effluent from the GC column was simultaneously directed to the antennal preparation and the GC detector. Separation of compounds was achieved on an Agilent Gas Chromatography system equipped with a column injector and a flame ionization detector (FID), using an Agilent HP-5 column (30 m×0.32 mm, 0.25 μm film). […] The outputs from the EAG amplifier and the FID were monitored simultaneously and analysed using the Syntech software package. […]

Test [3] has as its system Bactrocera tryoni. The experiment in a line: Oviposition assay for Bactrocera tryoni. It is filed as in vivo. Particulars: 1.17% w/v in agar plate with γ-octalactone; P<0.0001. The method, then:
Agar plates with oviposition stimulant (OS; γ-octalactone) with 1-octanol (1.17% w/v) or 1-nonanol (1.17% w/v) were used as oviposition substrate to determine the oviposition deterrent activity of 1-octanol and 1-nonanol to gravid female B. tryoni. Agarose (0.8 g in 100 ml water) was melted in a microwave, was cooled to 40° C. and appropriate amount of the oviposition stimulant in combination with 1-octanol or 1-nonanol was added. This mixture was poured into Petri plates and cooled at 0° C. in a refrigerator. This was done to enhance setting of the mixture and lower volatile vaporization. Oviposition substrates were prepared freshly when required. Oviposition plate containing OS alone (control), OS+1-octanol or OS+1-nonanol was provided to gravid females (50 gravid females; 15-20 days old) in cages (30×30×30 cm) to lay eggs. The eggs laid in each plate was enumerated under a stereo-dissecting microscope (Olympus, Japan). Thirty replicates for each test compound and control were carried out.

Test [4] deals with Bactrocera jarvisi. As to the kind of experiment: Oviposition assay for Bactrocera jarvisi. In kind it is in vivo. Particulars: 1.17% in agar plate with mango juice; P<0.0001. The method, then:
Agar plates with oviposition stimulant (MJ: Mango Juice) with 1-octanol (1.17%) or 1-nonanol (1.17%) were used as oviposition substrate to determine the oviposition deterrent activity of 1-octanol and 1-nonanol to gravid female B. jarvisi. Agar (0.8 g in 100 ml of diluted mango juice with water; 1:1) melted in a microwave, was cooled to 40° C. and appropriate amount of 1-octanol or 1-nonanol was added. This mixture was poured into Petri plates and cooled to 0° C. in a refrigerator. This was done to enhance setting of the mixture and lower volatile vaporization. Oviposition substrates were prepared freshly when required. Oviposition plate containing MJ alone (control), MJ+1-octanol or MJ+1-nonanol was provided to gravid females (20 gravid females; 15-20 days old) in cages (30×30×30 cm) to lay eggs. The eggs laid in each plate was enumerated under a stereo-dissecting microscope (Olympus, Japan). Twenty four replicates for each test compound and control were carried out.

The subject of test [5] is Zeugodacus cucumis. The experiment in a line: Oviposition assay for Zeugodacus cucumis. In kind it is in vivo. The conditions noted are these: 1.17% w/v with zucchini juice on agar plate; P<0.0001. Here is the method:
Agar plates applied with oviposition stimulant (OS: fresh zucchini juice) with 1-octanol (1.17% w/v) or 1-nonanol (1.17% w/v) were used as oviposition substrate to determine the oviposition deterrent activity of 1-octanol and 1-nonanol to gravid female Z. cucumis. Agar (0.8 g in 100 ml water) was melted in a microwave, was cooled to 40° C. and poured into Petri plates and cooled at 0° C. Oviposition stimulant alone or OS mixed with 1-octanol or 1-nonanol (50 ul) was spread on agarose plates. Oviposition substrates were prepared freshly when required. Oviposition plate containing OS alone (control), OS+1-octanol or OS+1-nonanol was provided to gravid females (20 gravid females; 15-20 days old) in cages (30×30×30 cm) to lay eggs. The eggs laid in each plate was enumerated under a stereo-dissecting microscope (Olympus, Japan). Twenty four replicates for each test compound and control were carried out.

Test [6] has as its system Ceratitis capitata. The experiment in a line: Oviposition assay for Ceratitis capitata. In kind it is in vivo. The conditions noted are these: grapes dipped in 1.17% w/v solution; P<0.0001. From the text:
Red seedless grapes from IGA express (Murdoch University, Perth) washed with warm water thrice and dried with paper towel were used as oviposition substrate. Solution of 1-octanol (1.17% w/v) or 1-nonanol (1.17% w/v) were made by mixing appropriate amounts of 1-octanol or 1-nonanol in water with ethanol as an emulsifier. Washed grapes of equal size, dipped into the above solutions for 15-20 sec, was provided to gravid females (50 gravid females; 15-20 days old) in cages (30×30×30 cm) to lay eggs. Grapes that were dipped in water and emulsifier mixture was used as control. Eggs laid in each grapes was enumerated under a stereo-dissecting microscope (Olympus, Japan). Forty replicates for each test compound and control were carried out.

Test [7] relates to Bactrocera kraussi. The experiment in a line: Oviposition assay for Bactrocera kraussi. It is filed as in vivo. Particulars: orange segments dipped in 1.17% w/v solution; P<0.0001. An excerpt:
Oranges from Woolworths (Marsfield, NSW) were washed with warm water and dried with paper towel. They were peeled and segmented and a single segment was used as oviposition substrate. Solution of 1-octanol (1.17% w/v) or 1-nonanol (1.17% w/v) were made by mixing appropriate amounts of 1-octanol or 1-nonanol in water with ethanol as an emulsifier. Orange segments of equal size, dipped into the above solutions for 15-20 sec, was provided to gravid females flies (20 gravid females; 20 days old) in cages (30×30×30 cm) to lay eggs. Orange segments dipped in water and emulsifier mixture was used as control. Eggs laid in each orange segment was enumerated under a stereo-dissecting microscope (Olympus, Japan). Twelve replicates for each test compound and control were carried out.

Test [8] concerns Bactrocera tryoni. As to the kind of experiment: Mating assay (mating disruption). In kind it is in vivo. The conditions noted are these: of 15 trials; 5 microliters on filter paper, air pumped into arena; P<0.00001 vs control. The method, then: Mating assays were carried out at dusk, the normal mating time of B. tryoni. A pair of 15-day old male and female flies were introduced into a behavioural arena 30 min before the onset of dusk. They were allowed to acclimatize for 20 min after which 1-octanol or filtered air was pumped through the inlet of the arena. Five microliters of 1-octanol was applied on a clean filter paper. This filter paper was placed into an air-tight vessel with an inlet and outlet. Charcoal filtered air (1 litre per hour) was pumped into the vessel from the inlet and the outlet was connected to the inlet of the arena with flies. Air from a vessel with clean filter paper was used as control. Fifteen pairs were set up for both 1-octanol treatment and air control. The activity of flies was recorded overnight, and the video was analysed using BORIS software. Collected data included (1) whether a pair mated, (2) Number of copulation attempts, and (3) copula duration.

For test [9], the system named is Bactrocera tryoni antenna. The experiment in a line: GC-EAG responses, Bactrocera tryoni. Particulars: both sexes. From the text:
(§1) Coupled Gas Chromatography-Electroantennography (GC-EAG) recordings were made with Ag-glass microelectrodes filled with electroconductive gel (Spectra 360, Parker Laboratories Inc., USA). The head of male or female flies (i.e., Bactrocera tryoni, Bactrocera jarvisi, Bactrocera kraussi, and Zeugodacus cucumis) was separated from the body with a microscalpel and was placed on the tip of the indifferent electrode, making sure the base of the head is affixed to the gel in the electrode. The tip of the insect antenna was made to touch the recording electrode and was slightly inserted into the gel to stabilize the antenna. The mounted heads were under charcoal filtered and humidified air flow (2400 mL min-1) controlled by a flow controller (Stimulus Controller CS-55, Syntech, Hilversum, The Netherlands). The signals were passed through a high impedance amplifier (UN-06, Syntech, Hilversum, The Netherlands). 1-octanol or 1-nonanol were tested individually or as mixture of known concentration. After injection of compounds, the effluent from the GC column was simultaneously directed to the antennal preparation and the GC detector. […] The outputs from the EAG amplifier and the FID were monitored simultaneously and analysed using the GCEAD 2014 software v1.2.5 (Syntech, The Netherlands).

The test system of test [10] is Bactrocera jarvisi antenna. As to the kind of experiment: GC-EAG responses, Bactrocera jarvisi. The conditions noted are these: both sexes.
Excerpt: as §1

For test [11], the system named is Bactrocera kraussi antenna. The experiment in a line: GC-EAG responses, Bactrocera kraussi. Particulars: both sexes.
Excerpt: as §1

Test [12] deals with Zeugodacus cucumis antenna. The experiment in a line: GC-EAG responses, Zeugodacus cucumis. Particulars: both sexes.
Excerpt: as §1

Test [13] has as its system Ceratitis capitata antenna. As to the kind of experiment: Standalone EAG, Ceratitis capitata. Particulars: both sexes; ten replicates per compound per sex. An excerpt: For the […], Ceratitis capitata, a standalone EAG was used for antennal recordings. Electroconductive gel (Spectra 360, Parker Laboratories Inc., USA) were applied to the arms of the metal electrodes and the head of male or female fly, separated from the body was affixed onto one of the indifferent metal arm. The recording arm with gel was made to touch a single or both the antenna of the fly. The antennal preparation was inserted to the EAG probe holder that was under filtered and humidified air the same as described above. The EAG signals were passed through a high impedance amplifier (UN-06, Syntech, Hilversum, The Netherlands). 1-Octanol or 1-nonanol of known concentrations were tested individually. The compounds (10 ul) were dispensed on a filter paper and were placed into a pasture pipette. The prepared pipettes were fixed tubing from the stimulus controller (CS-55, Syntech, The Netherlands) and the stimulus was puffed over the antennal preparation. The response was record using EAGPro software (Syntech, The Netherlands). Ten replicates were recorded for each compound per sex, with EAG activity confirmed in 100% of trials presenting 1-octanol or 1-nonanol for both sexes of C. capitata (FIG. 10E).

`CCCCCCCCO` [1-octanol]: in test [1], the “Time spent in olfactometer arm” value was “less time”. Moreover, the “Response in fly's antenna (GC-EAD)” value in test [2] is “trigger response”. Further, the “Eggs laid on oviposition plates vs control” value in test [3], in test [4] and in test [5] was “significantly different from control” throughout. For the same molecule, the “Eggs laid vs control” value in [6] and in test [7] was “significantly different from control” each time. Further, the “Trials in which flies attempted mating” value in test [8] was “none”. Besides, in test [8], the “Trials with successful mating” value is on record as “none”. Further, the “Trials with EAG activity” value in test [9], in test [10], in [11], in test [12] and in test [13] was 100 % of trials in each case.
In the case of `CCCCCCCCCO` [1-nonanol], the “Eggs laid on oviposition plates vs control” value in test [3], in test [4] and in test [5] was “significantly different from control” throughout. Also, the “Eggs laid vs control” value in [6] and in test [7] was “significantly different from control” throughout. Moreover, the “Trials with EAG activity” value in test [9], in test [10], in test [11], in test [12] and in [13] was 100 % of trials throughout.

The values are drawn from patent publication US20230337664A1, “FRUIT FLY CONTROL” (MACQUARIE UNIVERSITY, priority 2020, published 2023).
